Earlier results in US20070134724A1, “Phosphorylation of tau by abl” (priority 2005, published 2007).
Counter-ions that a name gives are not always drawn. Like-named read-outs stand apart in the source and are kept apart here.

Experiments:
Aβ [1] = details: neurons
Aβ [2] = details: guinea pig brains

## Cc1ccc(NC(=O)c2ccc(CN3CCN(C)CC3)cc2)cc1Nc1nccc(-c2cccnc2)n1 [Gleevec, imatinib mesylate]
Aβ [1]
  production of Aβ: inhibits
Aβ [2]
  production of Aβ: inhibits
